We go through four molecules from ChEMBL document CHEMBL1149580, “Caco-2 cell permeability and stability of two d-glucopyranuronamide conjugates of thyrotropin-releasing hormone” (Bioorg Med Chem, 2007).

Non-standard residues stand in square brackets, D forms with d. Residues, ends and D or L forms follow the SMILES beside them. ξ: configuration not given here. *: point of attachment. X1 = NC(=O)[C@H]1OC(N*)[C@H](O)[C@@H](O)[C@@H]1O; ξAoc(2) = CCCCCCC(N)C(=O)O

Series [1] in a line: Stability in Caco-2 cells after 2 hrs. Conditions: human, read-out: Stability. In kind it is ADME, cell-based.
Series [2] is described as follows: Apparent permeability across human Caco-2 cells. It counts as ADME, cell-based. In general terms: Caco-2 cells form a polarised layer with tight junctions and transporters.
Series [3] is described as follows: Stability in Caco-2 cells assessed as half life. It counts as ADME, cell-based, Colon. Conditions: human.
Series [4] is described as follows: Stability in Caco-2 cells after 20 mins. In kind it is ADME, cell-based. Conditions: human, read-out: Stability.

In the case of `NC(=O)[C@H]1OC(NC(=O)[C@@H]2CCCN2C(=O)[C@H](Cc2cnc[nH]2)NC(=O)[C@@H]2CCC(=O)N2)[C@H](O)[C@@H](O)[C@@H]1O` (stereo not given in full), the remaining at 2 h in series [1] is 20%. Besides, the Papp (as a rule, the rate of passage across a membrane or cell layer, normalised by area and donor concentration) in series [2] is 5.1 ×10⁻⁶ cm/s. The half-life (in general, the time needed for the level to fall by half in the phase considered) in series [3] turned out to be 20 min.
Turning to `CCCCCCC(N)C(=O)N[C@@H](CCC(N)=O)C(=O)N[C@@H](Cc1cnc[nH]1)C(=O)N1CCC[C@H]1C(=O)NC1O[C@H](C(N)=O)[C@@H](O)[C@H](O)[C@H]1O` (stereo not given in full) (H-[ξAoc(2)]QHP-X1), the remaining at 2 h in series [1] was 20%. Also, the Papp in series [2] turned out to be 16.3 ×10⁻⁶ cm/s. Moreover, in series [3], the half-life worked out at 20 min.
Consider `OC[C@@H](O)[C@@H](O)[C@H](O)[C@H](O)CO` [MANNITOL], for which, in series [2], the apparent permeability coefficient (Papp) came to 0.0825 ×10⁻⁶ cm/s.
`NC(=O)[C@@H]1CCCN1C(=O)[C@H](Cc1cnc[nH]1)NC(=O)[C@@H]1CCC(=O)N1` [PROTIRELIN]: the remaining at 20 min in series [4] was under 5%. In addition, in series [2], the Papp worked out at 0.147 ×10⁻⁶ cm/s. In addition, the half-life in series [3] amounted to 3 min.
